≈ marks a conversion by molar mass, not a printed value.
system: Plasmodium falciparum; experiment: Antimalarial effect as schizonticidal activity against chloroquine-sensitive Plasmodium falciparum 3D7 after 40 hrs; conditions: 3D7, 40 h

| SMILES | MIC [µg/mL] |
| --- | --- |
| Cc1cc(NC(=O)CN2CCN(C)CC2)c2cc(NC(=O)Nc3cccc(C#N)c3)ccc2n1 | 2 (≈ 4.37 µM) |
| CC(=O)c1ccc(NC(=O)Nc2ccc3nc(C)cc(NC(=O)c4ccccc4)c3c2)cc1 | 50 (≈ 114 µM) |
| CCN(CC)CCCC(C)Nc1ccnc2cc(Cl)ccc12 (stereo not drawn) [CHLOROQUINE] | 0.015 (≈ 0.0469 µM) |
| CC(=O)Nc1cc(C)nc2ccc(NC(=O)Nc3ccc(C(C)=O)cc3)cc12 | 10 (≈ 26.6 µM) |
| Cc1cc(NC(=O)c2ccccc2Cl)c2cc(NC(=O)Nc3cccc(Cl)c3C)ccc2n1 | 10 (≈ 20.9 µM) |
| Cc1cc(NC(=O)CN2CCN(C)CC2)c2cc(NC(=O)Nc3cccc(F)c3)ccc2n1 | 10 (≈ 22.2 µM) |
| Cc1cc(NC(=O)c2cccc(Cl)c2)c2cc(NC(=O)Nc3ccc(Cl)c(C(F)(F)F)c3)ccc2n1 | > 10 |
| Cc1cc(NC(=O)c2ccccc2)c2cc(NC(=O)Nc3ccc(Br)cc3)ccc2n1 | 10 (≈ 21 µM) |
| Cc1cc(NC(=O)c2ccccc2Cl)c2cc(NC(=O)Nc3ccc(F)c(Cl)c3)ccc2n1 | 10 (≈ 20.7 µM) |
| CC(=O)Nc1cc(C)nc2ccc(NC(=O)Nc3ccc(Cl)cc3)cc12 | 10 (≈ 27.1 µM) |
| Cc1cc(NC(=O)c2cccc(Cl)c2)c2cc(NC(=O)Nc3ccc(Cl)c(Cl)c3)ccc2n1 | 10 (≈ 20 µM) |
| Cc1cc(NC(=O)c2ccccc2Cl)c2cc(NC(=O)Nc3ccc(Cl)cc3)ccc2n1 | 2 (≈ 4.3 µM) |
| CC(=O)c1cccc(NC(=O)Nc2ccc3nc(C)cc(NC(=O)c4ccccc4)c3c2)c1 | 10 (≈ 22.8 µM) |
| Cc1cc(NC(=O)CN2CCN(C)CC2)c2cc(NC(=O)Nc3cccc(Cl)c3C)ccc2n1 | > 10 |
| Cc1cc(NC(=O)c2ccccc2Cl)c2cc(NC(=O)Nc3ccc(F)cc3)ccc2n1 | 50 (≈ 111 µM) |
| Cc1cc(NC(=O)c2cccc(Cl)c2)c2cc(NC(=O)Nc3ccc(C)c(Cl)c3)ccc2n1 | 10 (≈ 20.9 µM) |
| Cc1cc(NC(=O)c2cccc(Cl)c2)c2cc(NC(=O)Nc3ccc(Br)cc3)ccc2n1 | 2 (≈ 3.92 µM) |
| Cc1cc(NC(=O)c2cccc(Cl)c2)c2cc(NC(=O)Nc3cccc(C#N)c3)ccc2n1 | 1 (≈ 2.19 µM) |
| Cc1cc(NC(=O)c2ccccc2)c2cc(NC(=O)Nc3cccc(C(F)(F)F)c3)ccc2n1 | 10 (≈ 21.5 µM) |

| SMILES | MIC [µg/mL] |
| --- | --- |
| Cc1cc(NC(=O)c2ccccc2)c2cc(NC(=O)Nc3ccc(C)c(Cl)c3)ccc2n1 | 2 (≈ 4.5 µM) |
| Cc1cc(NC(=O)c2cccc(Cl)c2)c2cc(NC(=O)Nc3ccc(F)cc3)ccc2n1 | 10 (≈ 22.3 µM) |
| Cc1cc(NC(=O)c2ccccc2)c2cc(NC(=O)Nc3ccc(F)cc3)ccc2n1 | 10 (≈ 24.1 µM) |
| Cc1cc(NC(=O)c2ccccc2Cl)c2cc(NC(=O)Nc3cccc(F)c3)ccc2n1 | 2 (≈ 4.46 µM) |
| CC(=O)c1ccc(NC(=O)Nc2ccc3nc(C)cc(NC(=O)c4ccco4)c3c2)cc1 | 10 (≈ 23.3 µM) |
| Cc1cc(NC(=O)c2ccccc2Cl)c2cc(NC(=O)Nc3cccc(C(F)(F)F)c3)ccc2n1 | 2 (≈ 4.01 µM) |
| Cc1cc(NC(=O)c2cccc(Cl)c2)c2cc(NC(=O)Nc3cccc(Cl)c3)ccc2n1 | 50 (≈ 107 µM) |
| Cc1cc(NC(=O)c2cccc(Cl)c2)c2cc(NC(=O)Nc3cccc(F)c3)ccc2n1 | > 50 |
| Cc1cc(NC(=O)c2ccccc2)c2cc(NC(=O)Nc3cccc(F)c3)ccc2n1 | 10 (≈ 24.1 µM) |
| Cc1cc(NC(=O)c2ccccc2)c2cc(NC(=O)Nc3cccc(Cl)c3C)ccc2n1 | 50 (≈ 112 µM) |
| CC(=O)Nc1cc(C)nc2ccc(NC(=O)Nc3cc(Cl)cc(Cl)c3)cc12 | 2 (≈ 4.96 µM) |
| CC(=O)Nc1cc(C)nc2ccc(NC(=O)Nc3ccc(C)c(Cl)c3)cc12 | 50 (≈ 131 µM) |
| Cc1cc(NC(=O)c2ccccc2)c2cc(NC(=O)Nc3ccc(F)c(Cl)c3)ccc2n1 | 10 (≈ 22.3 µM) |
| Cc1cc(NC(=O)CN2CCN(C)CC2)c2cc(NC(=O)Nc3ccc(F)cc3)ccc2n1 | 2 (≈ 4.44 µM) |
| Cc1cc(NC(=O)c2ccco2)c2cc(NC(=O)Nc3cc(Cl)cc(Cl)c3)ccc2n1 | 2 (≈ 4.39 µM) |
| CC(=O)c1cccc(NC(=O)Nc2ccc3nc(C)cc(NC(=O)c4ccccc4Cl)c3c2)c1 | 2 (≈ 4.23 µM) |
| CC(=O)c1cccc(NC(=O)Nc2ccc3nc(C)cc(NC(=O)c4cccc(Cl)c4)c3c2)c1 | 10 (≈ 21.1 µM) |
| Cc1cc(NC(=O)c2ccccc2)c2cc(NC(=O)Nc3cccc(Cl)c3)ccc2n1 | 50 (≈ 116 µM) |
| Cc1cc(NC(=O)c2ccccc2)c2cc(NC(=O)Nc3ccc(Cl)cc3)ccc2n1 | > 50 |
